In US9079905B2, “Compounds for the treatment of CNS disorders” (Boehringer Ingelheim International GmbH, priority 2008, dated 2015) one finds inhibition and IC50 data, which are given here for 20 compounds.

This assay has as its target T1, human PDE9A2 (Homo sapiens, UniProt O76083).
T1 construct: made in house; host or cells: Sf9 insect cells (infected; crude lysate used as enzyme source)
Put plainly: PDE9A2 enzymatic activity assay (scintillation proximity assay). Format: biochemical. As to conditions: for inhibition at 10 µM: read-out: % Inhibition of PDE 9A2; for IC50: specific IC50 value is within the given range. Here is the method:
The PDE9A2 enzymatic activity assay was run as scintillation proximity assay (SPA), in general according to the protocol of the manufacturer (Amersham Biosciences, product number: TRKQ 7100).
As enzyme source, lysate (PBS with 1% Triton X-100 supplemented with protease inhibitors, cell debris removed by centrifugation at 13.000 rpm for 30 min) of SF 9 cell expressing the human PDE9A2 was used. The total protein amount included in the assay varied upon infection and production efficacy of the SF9 cells and lay in the range of 0.1-100 ng.
In general, the assay conditions were as follows: • total assay volume: 40 microliter • protein amount: 0.1-50 ng • substrate concentration (cGMP): 20 nanomolar; ˜1 mCi/1 • incubation time: 60 min at room temperature • final DMSO concentration: 0.2-1
The assays were run in 384-well format. The test reagents as well as the enzyme and the substrate were diluted in assay buffer. The assay buffer contained 50 mM Tris, 8.3 mM MgCl2, 1.7 mM EGTA, 0.1% BSA, 0.05% Tween 20; the pH of assay buffer was adjusted to 7.5. The reaction was stopped by applying a PDE9 specific inhibitor (e.g. compounds according to WO04099210 or WO04099211) in excess.
The activity of the positive control (minus the negative control=background) is set to 100% and activity in the presence of test compound is expressed relative to these 100%. Within this setting, an inhibition above 100% might be possible due to the nature of the variation of the positive control within the assay. In the following inhibition of PDE 9A2 is presented for a concentration at 10 μM, if not indicated otherwise.
IC50 can be calculated with GraphPadPrism or other suited software setting the positive control as 100 and the negative control as 0. For calculation of IC50 dilutions of the test compounds (substrates) are to be selected and tested following the aforementioned protocol.
(In general: In a scintillation proximity assay essentially only radioactivity close to the scintillant gives light.)

Structures are written as SMILES.

T1 sequence (O76083 1-533 isoform O76083-2): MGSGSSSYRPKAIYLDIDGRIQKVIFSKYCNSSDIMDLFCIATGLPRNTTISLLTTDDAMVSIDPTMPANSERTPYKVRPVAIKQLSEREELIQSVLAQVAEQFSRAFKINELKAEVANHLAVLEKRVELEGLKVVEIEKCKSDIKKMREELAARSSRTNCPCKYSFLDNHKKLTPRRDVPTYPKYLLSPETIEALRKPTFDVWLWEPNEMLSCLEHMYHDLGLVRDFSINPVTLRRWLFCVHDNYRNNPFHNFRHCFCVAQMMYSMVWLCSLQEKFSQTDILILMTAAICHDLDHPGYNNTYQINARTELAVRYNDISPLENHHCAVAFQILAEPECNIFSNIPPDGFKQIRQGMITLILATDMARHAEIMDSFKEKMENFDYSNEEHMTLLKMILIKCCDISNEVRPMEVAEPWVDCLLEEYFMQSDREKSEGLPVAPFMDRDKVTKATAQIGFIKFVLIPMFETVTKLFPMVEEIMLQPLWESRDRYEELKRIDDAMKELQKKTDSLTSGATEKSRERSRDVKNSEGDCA

As to `O=c1[nH]c(CC2CCCC2)nc2c1cnn2C1CCCC1O` (mixture of isomers) [Example 10], the inhibition at 10 µM is 102% and the 50% inhibitory concentration (IC50) fell in the range of 1 to 100 nM.
On the same counts, the results for `O=c1[nH]c(Cc2ccccn2)nc2c1cnn2C1CCCC(c2ccccc2)C1` (mixture of isomers) [Example 14] are 94% and 101 to 1500 nM.
With `O=c1[nH]c(CC2CC2)nc2c1cnn2C1CCCC(c2ccccc2)C1` (mixture of isomers) [Example 15], the inhibition at 10 µM amounted to 93% and the IC50 lay in the range of 101 to 1500 nM.
Regarding `CC(C)(C)OC(=O)NC1CCCC(n2ncc3c(=O)[nH]c(CC4CCCC4)nc32)C1` (mixture of isomers) [Example 16], the inhibition at 10 µM was determined as 104% and the IC50 lay within 1 to 100 nM.
With `CCOC(=O)NC1CCCC(n2ncc3c(=O)[nH]c(CC4CCCC4)nc32)C1` (mixture of isomers) [Example 17], the inhibition at 10 µM turned out to be 103% and the half-maximal inhibitory concentration (IC50) fell in the range of 1 to 100 nM.
In the case of `CC(C)(C)OC(=O)NC1CCCC(n2ncc3c(=O)[nH]c(Cc4ccccc4OC(F)(F)F)nc32)C1` (mixture of isomers) [Example 18], the inhibition at 10 µM was determined as 100% and the IC50 is 1 to 100 nM.
Consider `CCOC(=O)NC1CCCC(n2ncc3c(=O)[nH]c(Cc4ccccc4OC(F)(F)F)nc32)C1` (mixture of isomers) [Example 19], for which the inhibition at 10 µM was found to be 100% and the IC50 was 1 to 100 nM.
For the compound `CC(=O)NC1CCCC(n2ncc3c(=O)[nH]c(Cc4ccccc4OC(F)(F)F)nc32)C1` (mixture of isomers) [Example 49], the inhibition at 10 µM was 99% and the IC50 lay within 1 to 100 nM.
`O=C(NC1CCCC(n2ncc3c(=O)[nH]c(Cc4ccccc4OC(F)(F)F)nc32)C1)c1ccccc1` (mixture of isomers) [Example 85]: the inhibition at 10 µM worked out at 94% and the half-inhibitory concentration (IC50) was in the range of 101 to 1500 nM.
On the same counts, the results for `COC1CCCCC1n1ncc2c(=O)[nH]c(CC3CC3)nc21` (racemic) [Example 11] are 89% and 101 to 1500 nM.
In the case of `COC1CCCCC1n1ncc2c(=O)[nH]c(Cc3ccccn3)nc21` (racemic) [Example 12], the inhibition at 10 µM was 83% and the IC50 was in the range of 101 to 1500 nM.
On to `CCCC1OCCCC1Cc1nc2c(cnn2C2CCC(F)(F)CC2)c(=O)[nH]1` (racemic) [Example 24], for which the inhibition at 10 µM worked out at 98% and the half-inhibitory concentration (IC50) was in the range of 101 to 1500 nM.
On the same counts, the results for `O=c1[nH]c(C(F)c2ccccc2)nc2c1cnn2C1CCC(F)(F)CC1` (racemic) [Example 25] are 103% and 1 to 100 nM.
For `CCC(Cc1nc2c(cnn2C2CCC(F)(F)CC2)c(=O)[nH]1)C(F)(F)F` (racemic) [Example 27], in that order: 104% and 1 to 100 nM.
Consider `CC1(C)CC(Cc2nc3c(cnn3C3CCC(F)(F)CC3)c(=O)[nH]2)C(=O)O1` (racemic) [Example 28], for which the inhibition at 10 µM was found to be 91% and the 50% inhibitory concentration (IC50) is 101 to 1500 nM.
On the same counts, the results for `CC(Cc1nc2c(cnn2C2CCC(F)(F)CC2)c(=O)[nH]1)C(F)(F)F` (racemic) [Example 30] are 98% and 1 to 100 nM.
As for `O=c1[nH]c(C(F)c2ccccc2Br)nc2c1cnn2C1CCC(F)(F)CC1` (racemic) [Example 48-2], the inhibition at 10 µM is 92% and the concentration for half-maximal inhibition (IC50) was in the range of 101 to 1500 nM.
Consider `CC(Cc1nc2c(cnn2C2CCC(F)(F)CC2)c(=O)[nH]1)C(F)F` (racemic) [Example 48-5], for which the inhibition at 10 µM turned out to be 93% and the half-inhibitory concentration (IC50) is 101 to 1500 nM.
Consider `C[C@@H]1CC(Cc2nc3c(cnn3C3CCC(F)(F)CC3)c(=O)[nH]2)C(=O)N1C` (mixture of isomers) [Example 48-6], for which the inhibition at 10 µM worked out at 87% and the 50% inhibitory concentration (IC50) is 101 to 1500 nM.
For the compound `CC(=O)NC1CCCC(n2ncc3c(=O)[nH]c(CC4CCCC4)nc32)C1` (racemic) [Example 50], the inhibition at 10 µM stood at 95% and the half-maximal inhibitory concentration (IC50) was 101 to 1500 nM.

A word on the inhibition: it is the relative decrease from the control value, in per cent. Broadly, the IC50 is the concentration needed to halve the response being measured. The low end stands for higher potency, the high end for lower potency.
